# Reference: patent publication US12162884B2, “Solid forms of (R)-N-(2-(5-fluoropyridin-3-yl)-8-isopropylpyrazolo[1,5-a] [1,3,5]triazin-4-yl)-2,3,4,9-tetrahydro-1H-carbazol-3-amine as aryl hydrocarbon receptor (AHR) inhibitors” (Ikena Oncology, Inc., priority 2019, dated 2024)
# What was measured:
# [1] = Solubility studies in water, FaSSIF, FeSSIF and FaSSGF (excess solids in 5 mL medium at 37° C., HPLC; pH, XRPD and NMR of remaining material); type: physicochemical; conditions: for solubility at 30 min / solubility at 120 min / solubility at 24 h: 37 °C, thermodynamic from solid; for pH: pH of solubility sample
# Experimental: Simulated fluids were sourced from and prepared according to biorelevant.com using their FaSSIF/FeSSIF/FaSSGF Powder (v1, formerly known as SIF Powder). Samples were prepared by adding excess solids to 5 mL of medium at 37° C. Samples were pulled and filtered at 30 minutes, 120 minutes, and 24 hours and tested for solution concentration using the HPLC parameters described below in Table 13.
# The pH of the samples at each timepoint was also measured; pH paper was used at 30 minutes and 120 minutes due to the small sample size, and a pH meter was used at 24 hours. The remaining material from all trials was analyzed by XRPD after 24 hours to determine if any polymorphic form changes had taken place. The remaining material from trials in water was analyzed by NMR after 24 hours to determine if disassociation had taken place.
# [2] = Stability studies at 40° C./75% RH (HPLC); type: physicochemical; conditions: for stability / degradation over time: Time 0, 1 week, 2 weeks, 4 weeks
# Experimental: Stability studies of compound A, Form B, Compound 1, Form B, Compound 2, Form A, Compound 3, Form B, and Compound 4, Form A was carried out at 40° C./75% RH. Samples were stored in loosely capped vials in a chamber containing a saturated NaCl solution to achieve approximately 75% RH within the chamber. The chamber was stored in a 40° C. oven. Samples were analyzed at Time 0, 1 week, 2 weeks, and 4 weeks using the HPLC parameters described above in Table 13.
# [3] = FaSSGF, fassgf or other biorelevant, 30 minutes
# [4] = FaSSGF, fassgf or other biorelevant, 120 minutes
# [5] = FaSSGF, fassgf or other biorelevant, 24 hours
Structure (SMILES),"solubility at 30 min [1, 3]","solubility at 120 min [1, 4]","solubility at 24 h [1, 5]","pH ([1]; FaSSGF, 30 minutes, pH paper)","pH ([1]; FaSSGF, 120 minutes, pH paper)","pH ([1]; FaSSGF, 24 hours, pH meter)","pH ([1]; FaSSIF, 30 minutes, pH paper)","pH ([1]; FaSSIF, 120 minutes, pH paper)","pH ([1]; FaSSIF, 24 hours, pH meter)","pH ([1]; FeSSIF, 30 minutes, pH paper)","pH ([1]; FeSSIF, 120 minutes, pH paper)","pH ([1]; FeSSIF, 24 hours, pH meter)","pH ([1]; Water, 30 minutes, pH paper)","pH ([1]; Water, 120 minutes, pH paper)","pH ([1]; Water, 24 hours, pH meter)","% Area ([2]; 1 Week, HPLC)","% Area ([2]; 2 Weeks, HPLC)","% Area ([2]; 4 Weeks, HPLC)",stability / degradation over time ([2]; HPLC),"% Area ([2]; Time 0, HPLC)",also measured
CC(C)c1cnn2c(N[C@@H]3CCc4[nH]c5ccccc5c4C3)nc(-c3cncc(F)c3)nc12.CCS(=O)(=O)O [Compound 1 Form B],< 0.1 µg/mL,< 0.1 µg/mL,< 0.1 µg/mL,1.5,1.5,1.2,6,6,6.2,5,5,4.8,4.5,4.5,3.4,99.59 % Area,99.53 % Area,99.46 % Area,equally stable,99.90 % Area,"solubility at 30 min ([1]; FaSSIF, 30 minutes): 45 µg/mL; solubility at 120 min ([1]; FaSSIF, 120 minutes): 34 µg/mL; solubility at 24 h ([1]; FaSSIF, 24 hours): 18 µg/mL; solubility at 30 min ([1]; FeSSIF, 30 minutes): 58 µg/mL; solubility at 120 min ([1]; FeSSIF, 120 minutes): 56 µg/mL; solubility at 24 h ([1]; FeSSIF, 24 hours): 63 µg/mL; solubility at 30 min ([1]; water, 30 minutes): < 0.1 µg/mL; solubility at 120 min ([1]; water, 120 minutes): < 0.1 µg/mL; solubility at 24 h ([1]; water, 24 hours): < 0.1 µg/mL"
CC(C)c1cnn2c(N[C@@H]3CCc4[nH]c5ccccc5c4C3)nc(-c3cncc(F)c3)nc12 [Compound 4 Form A],,,,1.5,1.5,1.1,6,5.5,1.9,5,4.5,4.4,4.5,3,1.5,94.31 % Area,94.20 % Area,99.37 % Area,"exhibited degradation at 1 and 2 weeks, but the degradant peaks were no longer present at 4 weeks",99.77 % Area,"Solubility ([1]; FaSSGF, 37° C., 30 minutes): <0.1 µg/mL; Solubility ([1]; FaSSGF, 37° C., 120 minutes): <0.1 µg/mL; Solubility ([1]; FaSSGF, 37° C., 24 hours): <0.1 µg/mL; Solubility ([1]; FaSSIF, 37° C., 30 minutes): 71 µg/mL; Solubility ([1]; FaSSIF, 37° C., 120 minutes): 38 µg/mL; Solubility ([1]; FaSSIF, 37° C., 24 hours): 25 µg/mL; Solubility ([1]; FeSSIF, 37° C., 30 minutes): 48 µg/mL; Solubility ([1]; FeSSIF, 37° C., 120 minutes): 110 µg/mL; Solubility ([1]; FeSSIF, 37° C., 24 hours): 33 µg/mL; Solubility ([1]; Water, 37° C., 30 minutes): <0.1 µg/mL; Solubility ([1]; Water, 37° C., 120 minutes): <0.1 µg/mL; Solubility ([1]; Water, 37° C., 24 hours): <0.1 µg/mL"
CC(C)c1cnn2c(N[C@@H]3CCc4[nH]c5ccccc5c4C3)nc(-c3cncc(F)c3)nc12.CS(=O)(=O)O [Compound 3 Form B],< 0.1 µg/mL,< 0.1 µg/mL,< 0.1 µg/mL,1.5,1.5,1.2,6,6,5.7,5,5,4.4,4,4,2.4,91.60 % Area,69.61 % Area,16.23 % Area,significant degradation was observed over time,99.88 % Area,"solubility at 30 min ([1]; FaSSIF, 30 minutes): 65 µg/mL; solubility at 120 min ([1]; FaSSIF, 120 minutes): 34 µg/mL; solubility at 24 h ([1]; FaSSIF, 24 hours): 16 µg/mL; solubility at 24 hours in FeSSIF ([1]; FeSSIF, 37° C., 24 hours, comparison among the tested forms): highest solubility; solubility at 30 min ([1]; FeSSIF, 30 minutes): 27 µg/mL; solubility at 120 min ([1]; FeSSIF, 120 minutes): 43 µg/mL; solubility at 24 h ([1]; FeSSIF, 24 hours): 160 µg/mL; solubility at 30 min ([1]; water, 30 minutes): < 0.1 µg/mL; solubility at 120 min ([1]; water, 120 minutes): < 0.1 µg/mL; solubility at 24 h ([1]; water, 24 hours): < 0.1 µg/mL; solid state of the solids at the end of the study ([2]; end of the study): lost all crystallinity and became x-ray amorphous"
